# In US20040097463A1, “Use of asiatic acid or asiaticoside for treatment of cancer” (priority 2000, published 2004):
# Like-named read-outs stand apart in the source and are kept apart here.
# Experiments:
# [1] = MTT dye reduction cytotoxicity test, new born foreskin fibroblast cells; type: cell-based, human; conditions: human
# Method: (§1) Taxol is a commercially available chemotherapeutic predominantly used in the treatment of breast cancer, lung cancer and ovarian cancer. The experiments were performed on human foreskin fibroblast cells as well as established tumor cell lines. The percentage cytotoxicity was measured by the MTT dye reduction test, which requires the NADPH dehydrogenase enzyme of the mitochondria in live cells (1).
# [2] = system: New Born Foreskin Fibroblast cells; test: as above; type: cell-based, human
# Method: as §1
# [3] = system: Squamous carcinoma cells of SCC15; test: MTT dye reduction cytotoxicity test, SCC15; type: cell-based; conditions: for cytotoxicity at 2.5 µg/mL / cytotoxicity at 5 µg/mL / cytotoxicity at 10 µg/mL / cytotoxicity at 20 µg/mL / cytotoxicity at 25 µg/mL: Homo sapiens
# Method: as §1
# [4] = system: Squamous carcinoma cells of SCC4; test: MTT dye reduction cytotoxicity test, SCC4; type: cell-based; conditions: Homo sapiens
# Method: as §1
# [5] = MTT dye reduction cytotoxicity test, OKF6; type: cell-based; conditions: human
# Method: as §1
# [6] = system: SK-BR3 breast cancer cell line; test: MTT dye reduction cytotoxicity test, SK-BR3; type: cell-based; conditions: Homo sapiens
# Method: as §1
# HeLa cells = test: Apoptosis by DAPI staining of the nuclei in HeLa cells; type: cell-based; conditions: cytotoxic concentrations
# Method: HeLa cells were treated with asiatic acid at cytotoxic concentrations and apoptosis of the cells was measured by DAPI staining of the nuclei (2).
# [7] = MTT dye reduction cytotoxicity test, OKF6; type: cell-based; conditions: human, OKF6 cells (SV40-transformed normal epithelial cell line)
smiles,measurement,setting,value
"C[C@H]1[C@H](C)CC[C@]2(C(=O)O)CC[C@]3(C)C(=CC[C@@H]4[C@@]5(C)C[C@@H](O)[C@H](O)[C@@](C)(CO)[C@@H]5CC[C@]43C)[C@H]12 [Asiatic Acid, asiatic acid]",cytotoxicity at 0.8 μg/ml,[1],30%
same,cytotoxicity at 6.25 μg/ml,[1],30%
same,cytotoxicity at 12.5 μg/ml,[1],80%
same,cytotoxicity at 25 μg/ml,[1],84%
same,cytotoxic effect on human foreskin fibroblast cells in culture,[2],dose-dependent
same,cytotoxicity to squamous carcinoma cells compared with solid tumor cell line,[3],more potent cytotoxicity
same,cytotoxicity at 2.5 µg/mL,"[3]; SCC-15, read-out: % cytotox",16%
same,cytotoxicity at 5 µg/mL,"[3]; SCC-15, read-out: % cytotox",20%
same,cytotoxicity at 10 µg/mL,"[3]; SCC-15, read-out: % cytotox",88%
same,cytotoxicity at 20 µg/mL,"[3]; SCC-15, read-out: % cytotox",86%
same,cytotoxicity at 25 µg/mL,"[3]; SCC-15, read-out: % cytotox",90%
same,cytotoxicity at 5 µg/mL,"[4]; SCC-4, read-out: % cytotox",75%
same,cytotoxicity at 10 µg/mL,"[4]; SCC-4, read-out: % cytotox",75%
same,cytotoxicity at 20 µg/mL,"[4]; SCC-4, read-out: % cytotox",80%
same,cytotoxicity at 40 µg/mL,"[4]; SCC-4, read-out: % cytotox",70%
same,cytotoxicity at 50 µg/mL,"[4]; SCC-4, read-out: % cytotox",75%
same,cytotoxicity at 2.5 μg/ml,[5],5%
same,cytotoxicity at 5 μg/ml,[5],23%
same,cytotoxicity at 10 μg/ml,[5],88%
same,cytotoxicity at 20 μg/ml,[5],92%
same,cytotoxicity at 25 μg/ml,[5],92%
same,cytotoxicity at 0.8 µg/mL,"[6]; SK-BR-3, read-out: % cytotox",0%
same,cytotoxicity at 6.2 µg/mL,"[6]; SK-BR-3, read-out: % cytotox",0%
same,cytotoxicity at 12.5 µg/mL,"[6]; SK-BR-3, read-out: % cytotox",23%
same,cytotoxicity at 25 µg/mL,"[6]; SK-BR-3, read-out: % cytotox",80%
same,apoptosis of the cells measured by DAPI staining of the nuclei,HeLa cells,inducing apoptotic cell death
"CC(=O)O[C@H]1C(=O)[C@@]2(C)[C@H]([C@H](OC(=O)c3ccccc3)[C@]3(O)C[C@H](OC(=O)[C@H](O)[C@@H](NC(=O)c4ccccc4)c4ccccc4)C(C)=C1C3(C)C)[C@]1(OC(C)=O)CO[C@@H]1C[C@@H]2O [Taxol, reference compound]",cytotoxicity at 0.8 μg/ml,"[1]; New Born Foreskin Fibroblast cells, 0.8 μg/ml, read-out: % cytotox",40%
same,cytotoxicity at 6.25 μg/ml,"[1]; New Born Foreskin Fibroblast cells, 6.25 μg/ml, read-out: % cytotox",40%
same,cytotoxicity at 12.5 μg/ml,"[1]; New Born Foreskin Fibroblast cells, 12.5 μg/ml, read-out: % cytotox",50%
same,cytotoxicity at 25 μg/ml,"[1]; New Born Foreskin Fibroblast cells, 25 μg/ml, read-out: % cytotox",55%
same,cytotoxicity at 2.5 µg/mL,"[3]; SCC-15, SCC15, 2.5 μg/ml, read-out: % cytotox",3%
same,cytotoxicity at 5 µg/mL,"[3]; SCC-15, SCC15, 5 μg/ml, read-out: % cytotox",0%
same,cytotoxicity at 10 µg/mL,"[3]; SCC-15, SCC15, 10 μg/ml, read-out: % cytotox",0%
same,cytotoxicity at 20 µg/mL,"[3]; SCC-15, SCC15, 20 μg/ml, read-out: % cytotox",8%
same,cytotoxicity at 25 µg/mL,"[3]; SCC-15, SCC15, 25 μg/ml, read-out: % cytotox",23%
same,cytotoxicity at 5 µg/mL,"[4]; SCC-4, SCC4, 5 μg/ml, read-out: % cytotox",52%
same,cytotoxicity at 10 µg/mL,"[4]; SCC-4, SCC4, 10 μg/ml, read-out: % cytotox",60%
same,cytotoxicity at 20 µg/mL,"[4]; SCC-4, SCC4, 20 μg/ml, read-out: % cytotox",60%
same,cytotoxicity at 40 µg/mL,"[4]; SCC-4, SCC4, 40 μg/ml, read-out: % cytotox",60%
same,cytotoxicity at 50 µg/mL,"[4]; SCC-4, SCC4, 50 μg/ml, read-out: % cytotox",40%
same,cytotoxicity at 0.8 µg/mL,"[6]; SK-BR-3, SK-BR3, 0.8 μg/ml, read-out: % cytotox",40%
same,cytotoxicity at 6.2 µg/mL,"[6]; SK-BR-3, SK-BR3, 6.2 μg/ml, read-out: % cytotox",50%
same,cytotoxicity at 12.5 µg/mL,"[6]; SK-BR-3, SK-BR3, 12.5 μg/ml, read-out: % cytotox",40%
same,cytotoxicity at 25 µg/mL,"[6]; SK-BR-3, SK-BR3, 25 μg/ml, read-out: % cytotox",50%
same,cytotoxicity at 2.5 μg/ml,"[7]; OKF6, 2.5 μg/ml",26%
same,cytotoxicity at 5 μg/ml,"[7]; OKF6, 5 μg/ml",41%
same,cytotoxicity at 10 μg/ml,"[7]; OKF6, 10 μg/ml",54%
same,cytotoxicity at 20 μg/ml,"[7]; OKF6, 20 μg/ml",48%
same,cytotoxicity at 25 μg/ml,"[7]; OKF6, 25 μg/ml",75%
